Drawing on patent publication US20250277012A1 (Protagonist Therapeutics, Inc., priority 2021, published 2025), this text covers IC50 for 15 molecules.

pIC50: −log10 of the molar value. Positions of bridges follow the written chain, without caps; N, C: chain ends. Non-standard residues stand in square brackets, D forms with d. Residues, ends and D or L forms follow the SMILES beside them. Groups on a side chain read outwards from the residue. ξ: configuration not given here. *: point of attachment. X13 = COC(=O)CCCCCCCCCCCCCCCCC(=O)NCC[N+](C)(C)CC(=O)*; X1 = C[N+](C)(CCNC(=O)CCCCCCCCCCCCCCCCC(=O)O)CC(=O)*; X5 = CCCCCCCCCCCCCCCC(=O)NCC[N+](C)(C)CC(=O)*; C18 diacid = O=C(O)CCCCCCCCCCCCCCCCC(=O)*; Dip = N[C@H](C(=O)O)C(c1ccccc1)c1ccccc1; Pro(3S-OH) = O=C(O)[C@H]1NCC[C@@H]1O; ξDip = NC(C(=O)O)C(c1ccccc1)c1ccccc1; Pro(3R-OH) = O=C(O)[C@H]1NCC[C@H]1O; Palmitoyl = CCCCCCCCCCCCCCCC(=O)*; NMeT = CN[C@H](C(=O)O)[C@@H](C)O; NMeQ = CN[C@@H](CCC(N)=O)C(=O)O; β3hF = N[C@H](CC(=O)O)Cc1ccccc1; NMeK = CN[C@@H](CCCCN)C(=O)O; Tle = CC(C)(C)[C@H](N)C(=O)O; Isovaleryl = CC(C)CC(=O)*; hSer = N[C@@H](CCO)C(=O)O; Dap = NC[C@H](N)C(=O)O; AEEA = NCCOCCOCC(=O)O; Ahx = NCCCCCC(=O)O

The first experiment addresses T1, ferroportin (Homo sapiens, UniProt Q9NP59).
T1 sequence (Q9NP59 1-571): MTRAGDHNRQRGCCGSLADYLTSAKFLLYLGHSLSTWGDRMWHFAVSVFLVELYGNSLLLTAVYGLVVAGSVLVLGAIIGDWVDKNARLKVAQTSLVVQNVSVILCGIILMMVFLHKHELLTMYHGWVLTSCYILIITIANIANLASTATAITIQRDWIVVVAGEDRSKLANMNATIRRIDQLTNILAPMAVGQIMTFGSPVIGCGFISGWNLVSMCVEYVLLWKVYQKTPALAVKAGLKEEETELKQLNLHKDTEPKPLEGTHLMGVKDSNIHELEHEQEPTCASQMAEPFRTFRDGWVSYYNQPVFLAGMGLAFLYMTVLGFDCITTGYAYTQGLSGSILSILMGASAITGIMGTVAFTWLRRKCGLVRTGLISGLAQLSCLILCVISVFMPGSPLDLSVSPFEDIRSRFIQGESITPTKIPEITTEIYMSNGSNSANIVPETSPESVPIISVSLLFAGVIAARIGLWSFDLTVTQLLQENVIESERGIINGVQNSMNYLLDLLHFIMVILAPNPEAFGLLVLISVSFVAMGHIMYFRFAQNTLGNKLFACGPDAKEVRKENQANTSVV
The experiment is described as follows: T47D cell-based ferroportin internalization assay in presence of mouse serum albumin (MSA). Details: a human breast carcinoma adherent cell line which endogenously expresses ferroportin; host or cells: T47D. The settings on record: T47D internalization assay in presence of mouse serum albumin (MSA); Table 6E. An outline of the steps:
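Peptide potency for inducing ferroportin internalization was measured in T47D cells in the presence of serum albumin. Cells grown in RPMI with fetal bovine serum were seeded in 96-well plates at 80-100 k cells per well in 100 ul and rested overnight. Dilution series of test peptides were preincubated 30 min at room temperature, then added to the cells after the medium was aspirated.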
A word on the pIC50: it is the IC50 on a negative log10 scale, so that one unit is a factor of ten. In the case of `COC(=O)CC[C@H](NC(=O)CC(C)C)C(=O)N[C@H](C(=O)N[C@@H](Cc1c[nH]cn1)C(=O)N[C@H](C(=O)N1CCC[C@H]1C(=O)N[C@H]1CSSC[C@@H](C(=O)N(C)[C@@H](CCCCNC(=O)COCCOCCNC(=O)COCCOCCNC(=O)C[N+](C)(C)CCNC(=O)CCCCCCCCCCCCCCCCC(=O)O)C(=O)N[C@H](C(=O)N[C@H](CCCCN)C(N)=O)C(c2ccccc2)c2ccccc2)NC1=O)C(c1ccccc1)c1ccccc1)[C@@H](C)O` [compound 230] (Isovaleryl-E(OMe)TH[Dip]PCC[NMeK]([AEEA-AEEA-X1])[Dip][dK]-NH2; disulfide 6-7), the pIC50 is 7.00 to 8.00.
Same read-out and setting: the same measure for `COC(=O)CC[C@H](NC(=O)CC(C)C)C(=O)N[C@H](C(=O)N[C@@H](Cc1c[nH]cn1)C(=O)N[C@H](C(=O)N1CCC[C@H]1C(=O)N[C@H]1CSSC[C@@H](C(=O)N[C@@H](CCCCNC(=O)CCCCCNC(=O)C[N+](C)(C)CCNC(=O)CCCCCCCCCCCCCCCCC(=O)O)C(=O)N[C@H](CC(=O)N[C@H](CCCCN)C(N)=O)Cc2ccccc2)NC1=O)C(c1ccccc1)c1ccccc1)[C@@H](C)O` [compound 315] (Isovaleryl-E(OMe)TH[Dip]PCCK([Ahx-X1])[β3hF][dK]-NH2; disulfide 6-7): 7.00 to 8.00; for `COC(=O)CC[C@H](NC(=O)CC(C)C)C(=O)N[C@H](C(=O)N[C@@H](Cc1c[nH]cn1)C(=O)N[C@H](C(=O)N1CCC[C@H]1C(=O)N[C@H]1CSSC[C@@H](C(=O)N(C)[C@@H](CCCCNC(=O)COCCOCCNC(=O)COCCOCCNC(=O)C[N+](C)(C)CCNC(=O)CCCCCCCCCCCCCCCCC(=O)O)C(=O)N[C@H](CC(=O)N[C@H](CCCCN)C(N)=O)Cc2ccccc2)NC1=O)C(c1ccccc1)c1ccccc1)[C@@H](C)O` [compound 231] (Isovaleryl-E(OMe)TH[Dip]PCC[NMeK]([AEEA-AEEA-X1])[β3hF][dK]-NH2; disulfide 6-7): 7.00 to 8.00; for `CC(C)CC(=O)N[C@@H](CCC(=O)O)C(=O)N[C@H](C(=O)N[C@@H](Cc1c[nH]cn1)C(=O)N[C@H](C(=O)N1CCC[C@H]1C(=O)N[C@H]1CSSC[C@@H](C(=O)N(C)[C@@H](CCCCNC(=O)COCCOCCNC(=O)COCCOCCNC(=O)[C@H](CN)NC(=O)CCCCCCCCCCCCCCCCC(=O)O)C(=O)N[C@H](CC(=O)N[C@H](CCCCN)C(=O)N(C)[C@@H](CCC(N)=O)C(N)=O)Cc2ccccc2)NC1=O)C(c1ccccc1)c1ccccc1)[C@@H](C)O` [compound 251] (Isovaleryl-ETH[Dip]PCC[NMeK]([AEEA-AEEA-Dap-C18 diacid])[β3hF][dK][NMeQ]-NH2; disulfide 6-7): 7.00 to 8.00.

Staying with this experiment, now noted: Table 6E; T47D internalization assay with MSA.
With `CC(C)CC(=O)N[C@@H](CCC(=O)O)C(=O)N(C)[C@H](C(=O)N[C@@H](Cc1c[nH]cn1)C(=O)N[C@H](C(=O)N1CCC[C@H]1C(=O)N[C@H]1CSSC[C@@H](C(=O)N(C)[C@@H](CCCCNC(=O)CCCCCNC(=O)C[N+](C)(C)CCNC(=O)CCCCCCCCCCCCCCCCC(=O)O)C(=O)N[C@H](C(=O)N[C@H](CCCCN)C(N)=O)C(c2ccccc2)c2ccccc2)NC1=O)C(c1ccccc1)c1ccccc1)[C@@H](C)O` [compound 190] (Isovaleryl-E[NMeT]H[Dip]PCC[NMeK]([Ahx-X1])[Dip][dK]-NH2; disulfide 6-7), the pIC50 was 6.30 to 7.00.
Consider `CCCCCCCCCCCCCCCC(=O)NCC[N+](C)(C)CC(=O)NCCCC[C@@H](C(=O)N[C@H](C(N)=O)C(c1ccccc1)c1ccccc1)N(C)C(=O)[C@@H]1CSSC[C@H](NC(=O)[C@@H]2CCCN2C(=O)[C@@H](NC(=O)[C@H](Cc2cnc[nH]2)NC(=O)[C@H]([C@@H](C)O)N(C)C(=O)[C@H](CCC(=O)O)NC(=O)CC(C)C)C(c2ccccc2)c2ccccc2)C(=O)N1` [compound 169] (Isovaleryl-E[NMeT]H[Dip]PCC[NMeK](X5)[Dip]-NH2; disulfide 6-7), for which the pIC50 is 8.00 to 9.00.
`CC(C)CC(=O)N[C@@H](CCC(=O)O)C(=O)N1CC[C@H](O)[C@H]1C(=O)N[C@@H](Cc1c[nH]cn1)C(=O)N[C@H](C(=O)N1CCC[C@H]1C(=O)N[C@H]1CSSC[C@@H](C(=O)N(C)[C@@H](CCCCNC(=O)CCCCCNC(=O)C[N+](C)(C)CCNC(=O)CCCCCCCCCCCCCCCCC(=O)O)C(=O)N[C@H](C(=O)N[C@H](CCCCN)C(N)=O)C(c2ccccc2)c2ccccc2)NC1=O)C(c1ccccc1)c1ccccc1` [compound 192] (Isovaleryl-E[Pro(3S-OH)]H[Dip]PCC[NMeK]([Ahx-X1])[Dip][dK]-NH2; disulfide 6-7): the pIC50 is 7.00 to 8.00.
Same read-out and setting: the value for `COC(=O)CC[C@H](NC(=O)CC(C)C)C(=O)N[C@H](C(=O)N[C@@H](Cc1c[nH]cn1)C(=O)N[C@H](C(=O)N1CCC[C@H]1C(=O)N[C@H]1CSSC[C@@H](C(=O)N[C@H](CCCCNC(=O)CCCCCNC(=O)C[N+](C)(C)CCNC(=O)CCCCCCCCCCCCCCCCC(=O)O)C(=O)N[C@H](C(=O)N[C@H](C(N)=O)C(C)(C)C)C(c2ccccc2)c2ccccc2)NC1=O)C(c1ccccc1)c1ccccc1)[C@@H](C)O` [compound 212] (Isovaleryl-E(OMe)TH[Dip]PCC[dK]([Ahx-X1])[Dip][Tle]-NH2; disulfide 6-7) was 7.00 to 8.00.
On the same count and under the same terms, the same measure for `CCCCCCCCCCCCCCCC(=O)NCCCCCC(=O)NCCCC[C@@H](C(=O)N[C@H](C(=O)N[C@H](CCCCN)C(N)=O)C(c1ccccc1)c1ccccc1)N(C)C(=O)[C@@H]1CSSC[C@H](NC(=O)[C@@H]2CCCN2C(=O)[C@@H](NC(=O)[C@H](Cc2cnc[nH]2)NC(=O)[C@@H](NC(=O)[C@H](CCO)NC(=O)CC(C)C)[C@@H](C)O)C(c2ccccc2)c2ccccc2)C(=O)N1` [compound 168] (Isovaleryl-[hSer]TH[Dip]PCC[NMeK]([Ahx-Palmitoyl])[Dip][dK]-NH2; disulfide 6-7): 8.00 to 9.00; for `CC(C)CC(=O)NC(CCC(=O)O)C(=O)NC(C(=O)NC(Cc1cnc[nH]1)C(=O)NC(C(=O)N1CCCC1C(=O)NC1CSCc2ccc(cc2)CSCC(C(=O)N(C)C(CCCCNC(=O)COCCOCCNC(=O)COCCOCCNC(=O)C(CN)NC(=O)CCCCCCCCCCCCCCCCC(=O)O)C(=O)NC(CC(=O)NC(CCCCN)C(N)=O)Cc2ccccc2)NC1=O)C(c1ccccc1)c1ccccc1)C(C)O` (stereo not drawn) [compound 218]: 7.00 to 8.00.
`COC(=O)CCCCCCCCCCCCCCCCC(=O)NCC[N+](C)(C)CC(=O)NCCCCCC(=O)NCCCC[C@H]1C(=O)NC(C(c2ccccc2)c2ccccc2)C(=O)N[C@@H](C(N)=O)CCCCNC(=O)CC[C@H](NC(=O)CC(C)C)C(=O)N[C@@H]([C@@H](C)O)C(=O)N[C@@H](Cc2c[nH]cn2)C(=O)N[C@@H](C(c2ccccc2)c2ccccc2)C(=O)N2CCC[C@H]2C(=O)N[C@H]2CSSC[C@H](NC2=O)C(=O)N1C` (stereo partly drawn) [compound 160] (Isovaleryl-ETH[Dip]PCC[NMeK]([Ahx-X13])[ξDip][dK]-NH2; lactam 1-10; disulfide 6-7): the pIC50 is 7.00 to 8.00.
On the same count and under the same terms, the value for `COC(=O)CC[C@H](NC(=O)CC(C)C)C(=O)N1CC[C@@H](O)[C@H]1C(=O)N[C@@H](Cc1c[nH]cn1)C(=O)N[C@H](C(=O)N1CCC[C@H]1C(=O)N[C@H]1CSSC[C@@H](C(=O)N(C)[C@@H](CCCCNC(=O)CCCCCNC(=O)C[N+](C)(C)CCNC(=O)CCCCCCCCCCCCCCCCC(=O)O)C(=O)N[C@H](C(=O)N[C@H](CCCCN)C(N)=O)C(c2ccccc2)c2ccccc2)NC1=O)C(c1ccccc1)c1ccccc1` [compound 155] (Isovaleryl-E(OMe)[Pro(3R-OH)]H[Dip]PCC[NMeK]([Ahx-X1])[Dip][dK]-NH2; disulfide 6-7) was 7.00 to 8.00; that for `CCCCCCCCCCCCCCCC(=O)NCC[N+](C)(C)CC(=O)NCCCC[C@@H](C(=O)N[C@H](C(=O)N[C@H](CCCCN)C(N)=O)C(c1ccccc1)c1ccccc1)N(C)C(=O)[C@@H]1CSSC[C@H](NC(=O)[C@@H]2CCCN2C(=O)[C@@H](NC(=O)[C@H](Cc2cnc[nH]2)NC(=O)[C@@H](NC(=O)[C@H](CCC(=O)OC)NC(=O)CC(C)C)[C@@H](C)O)C(c2ccccc2)c2ccccc2)C(=O)N1` [compound 175] (Isovaleryl-E(OMe)TH[Dip]PCC[NMeK](X5)[Dip][dK]-NH2; disulfide 6-7) was 8.00 to 9.00; that for `CCCCCCCCCCCCCCCC(=O)NCCCCCC(=O)NCCCC[C@@H](C(=O)N[C@H](C(N)=O)C(c1ccccc1)c1ccccc1)N(C)C(=O)[C@@H]1CSSC[C@H](NC(=O)[C@@H]2CCCN2C(=O)[C@@H](NC(=O)[C@H](Cc2cnc[nH]2)NC(=O)[C@H]([C@@H](C)O)N(C)C(=O)[C@H](CCC(=O)O)NC(=O)CC(C)C)C(c2ccccc2)c2ccccc2)C(=O)N1` [compound 172] (Isovaleryl-E[NMeT]H[Dip]PCC[NMeK]([Ahx-Palmitoyl])[Dip]-NH2; disulfide 6-7) was 8.00 to 9.00.
For `CCCCCCCCCCCCCCCC(=O)NCC[N+](C)(C)CC(=O)NCCCCCC(=O)NCCCC[C@@H](C(=O)N[C@H](C(=O)N[C@H](CCCCN)C(N)=O)C(c1ccccc1)c1ccccc1)N(C)C(=O)[C@@H]1CSSC[C@H](NC(=O)[C@@H]2CCCN2C(=O)[C@@H](NC(=O)[C@H](Cc2cnc[nH]2)NC(=O)[C@@H](NC(=O)[C@H](CCC(=O)O)NC(=O)CC(C)C)[C@@H](C)O)C(c2ccccc2)c2ccccc2)C(=O)N1` [compound 197] (Isovaleryl-ETH[Dip]PCC[NMeK]([Ahx-X5])[Dip][dK]-NH2; disulfide 6-7), the pIC50 was 8.00 to 9.00.
